Laboratory results as given in US10940188B2, “Compounds and methods for treatment and prevention of Flavivirus infection” (priority 2016, dated 2021).
pIC50: −log10 of the molar value. “Also recorded” adds a separate entry of the source.

How the values were obtained:
[1] = test system: ZIKV production from SNB-19 cells; test: Infectious ZIKV production from SNB-19 cells, focus-forming unit assay on Vero cells; format: cell-based, Zika virus
Procedure: FIGS. 2A-1, 2A-2, 2B-1, 2B-2, 2C-1, 2C-2, 2D-1, 2D-2, 2D-3, 2E-1, 2E-2, and 2F. […] Screening of select compounds for antiviral activity against ZIKV infection was carried out. Glioblastoma SNB-19 cells were treated with indicated compound at 10×AC50 (determined in the primary caspase screen) for 1 hour prior to inoculation with FSS-13025 (at MOI=1). Cells were harvested 24 hours post infection and analyzed by Western blot for ZIKV-NS1 or GAPDH (FIGS. 2A-1 and 2A-2). Titration of PHA-690509 on glioblastoma cells for anti-ZIKV activity. Three strains of virus (FSS-13025, PRVABC59, and MR766; MOI=1) were tested. Shown are sample western blot images (FIG. 2B-1) and ImageJ quantification (FIG. 2B-2). Values represent mean±s.d. (n=3; ***P<0.001; One-way ANOVA). Titration of Emricasan on SNB-19 cells for anti-ZIKV activity was conducted similarly (FIGS. 2C-1 and 2C-2). Values represent mean±s.d. […] Sample western blot (FIG. 2D-2) and ImageJ quantification (FIG. 2D-3) are shown for infection with the PRVABC59 strain (MOI=1). Results for additional strains are shown in FIGS. 6A-F. Values represent mean±s.d. […] The concentration of NS1 in the medium of infected SNB-19 cells collected 24 hours post-infection was quantified by a ZIKV-NS1 ELISA kit (FIGS. 2E-1 and 2E-2). […] Cell culture supernatant was collected 24 hours after infection, and infectious virions were quantified for focus-forming units (FFU) using Vero cells. […] Curves represent best fits for calculating IC50 values, and the insets report the calculated IC50 value for each compound.
FIGS. 18A, 18B, 18C-1, 18C-2, 18D, 18E, 18F, 18G-1, and 18G-2. […] 24 hours post infection, supernatants from SNB-19 cells were titrated onto naïve vero cells plated in a monolayer in 96-well plates for infectious focus-forming unit assay as previously described and focus forming units quantified. […] Immunofluorescence (IF) staining (FIG. 18C-1) and quantification (FIG. 18C-2) of ZIKV positive SNB-19 cells following infection with one of three ZIKV strains and treatment with emetine at 0.01, 0.1, or 1 μM. […]
FIG. 21. […] IC50's calculated using graphpad PRISM software. […]

[2] = test system: liver injury in chronic Hepatitis C patients; settings: chronic HCV patients; cited from earlier work
[3] = test system: liver injury and fibrosis; settings: murine NASH model; cited from earlier work

## CC[C@H]1CN2CCc3cc(OC)c(OC)cc3[C@@H]2C[C@@H]1C[C@H]1NCCc2cc(OC)c(OC)cc21 [Emetine]
[1]; Zika virus, SNB-19 cells, each of three ZIKV strains, read-out: IC50 of infectious ZIKV production
  pIC50: ≥ 8.00

## C[C@H](NC(=O)C(=O)Nc1ccccc1C(C)(C)C)C(=O)N[C@@H](CC(=O)O)C(=O)COc1c(F)c(F)cc(F)c1F [Emricasan]
[2]
  liver injury and tolerability in clinical trials: reduced liver injury and was tolerated over 12 weeks; also recorded: well tolerated in human trials without significant adverse events
[3]
  liver injury and fibrosis: reduces liver injury and fibrosis

## O=C(Nc1ccc([N+](=O)[O-])cc1Cl)c1cc(Cl)ccc1O [Niclosamide]
[1]
  potency on inhibition of ZIKV replication: submicromolar range
